From patent publication US10975126B1 (priority 2020, dated 2021)
No end group written: not given here.

Test system: MERS-CoV
Assay type: cell-based, MERS-CoV (CoV/KOR/KNIH/002_05_2015) in Vero cells

SLTQINWTLLDLTYEMESLQQVVKALNEYYIDLKEL [Peptide 5]
inhibition of MERS-CoV / decrease in plaque formation (in words): strong inhibition
